Assay results taken from patent US20070186288A1, “Zebrafish models of acute myelogenous leukemia” (priority 2005, published 2007).
“Also recorded” adds a separate entry of the source. Where two headings read alike, the source gives them in different places.

How the values were obtained:
[1] = tested on: AML1-ETO phenotype in Tg(hsp:AML1-ETO) zebrafish embryos; assay type: in vivo; settings: for percentage of AML1-ETO-expressing embryos without circulating blood: 500 μM morpholino solution injected into 1-cell stage embryos, heat treated at 4, 16, 24 hpf, scored at 44 hpf, non-injected control 90.2%
Description: The Petri dishes containing zebrafish embryos were transferred from the growth temperature of 23-28.5° C. to a 37-42° C. incubator and incubated for 1 hour before returning them back to the normal temperature. The heat treatment may be repeated three to four times over 12-hour intervals as specified below. The percentages of embryos with phenotype were scored by visual inspection of the loss of circulating blood in the embryos after 40 hpf.
The morpholino antisense oligonucleotides hAML1-MO (5′-[…]; SEQ ID NO:3), which targets the translation start codon of human AML1, and zTIS11b-MO (5′-[…]; SEQ ID NO:4), which targets the splice donor site of zebrafish TIS11b transcripts, were obtained from Gene-Tools, LLC. For microinjection, 500 μM hAML1-MO or 200 μM zTIS11b-MO in 0.3× Danieau's buffer (17 mM NaCl, 2 mM KCl, 0.12 mM MgSO4, 1.8 mM Ca(NO3)2 and 1.5 mM HEPES, pH 7.6) were prepared and injected as described (Nasevicius et al., Nat. Genet. 26:216-220, 2000).
In AML1-ETO-expressing fish, the absence of circulating cells and the accumulation of non-circulating hematopoietic cells in the ICM are readily detected by eye. Therefore, circulation may be a simple surrogate phenotype for detecting the presence or absence of the AML1-ETO phenotype. To confirm that the loss-of-circulation phenotype is dependent on the inducible expression of AML1-ETO in the transgenic zebrafish, we tested whether this phenotype can be rescued by blocking AML1-ETO expression using an antisense morpholino oligonucleotide (hAML1-MO) complementary to the translation start site of the human AML1-ETO mRNA. Homogeneous transgenic embryo clutches were obtained from crosses between homozygous Tg(hsp:AML1-ETO) and wild-type fish. These embryos were heat treated at 4, 16, and 24 hpf, and were then scored at 44 hpf. […] On the other hand, in the heat-treated Tg(hsp:AML1-ETO) fish embryos, most of the blood cells accumulate in the ICM, especially at the location close to the end of the yolk extension, and fail to enter circulation. However, injection of HAML1-MO into 1-cell stage embryos restores the circulation in the transgenic embryos.
Zebrafish embryos readily absorb small molecules from the surrounding medium, rendering them a powerful tool to assess pharmacological efficacy (Peterson et al., Methods Cell. Biol. 76:569-591, 2004; Zon et al., Nat. Rev. Drug Discov. 4:35-44, 2005). […] While ATRA is generally not very effective in differentiating t(8;21) leukemic cells, complete remission of a patient with t(8;21) translocation has been reported (Chen et al., Chin. Med. J. (Engl). 115:58-61, 2002). We tested the efficacy of ATRA in reversing the zebrafish AML1-ETO phenotype. In this experiment, we heat-shocked the embryos three times instead of four times at 37° C. in order to reduce the phenotypic penetrance in the Tg(hsp:AML1-ETO) fish embryos to around 80%. Meanwhile, ATRA was added at 24 hpf.
The upregulation of TIS11b had been hypothesized to contribute to AML pathogenesis, but this hypothesis had not been tested. To elucidate the role of TIS11b in the AML1-ETO phenotype, we knocked down TIS11b by injecting an antisense morpholino oligonucleotide complementary to the […] of the zebrafish TIS11b gene (zTIS11b-MO).

[2] = tested on: hematopoietic cells of Tg(hsp:AML1-ETO) zebrafish embryos; experiment: Cytology (Wright-Giemsa) of blood extracted from Tg(hsp:AML1-ETO) embryos; assay type: in vivo; settings: 200 μM morpholino solution injected; mild heat treatment
Text: Blood cells were collected from anesthetized wild-type and AML1-ETO embryos at 40 hpf by transferring live fish to phosphate buffered saline containing 50 U/ml heparin, 1% bovine serum albumin, and 0.006% tricaine. Tails were excised posterior to the yolk extension (at approximately the site of the posterior ICM) using a scalpel. Blood cells were extruded from the site of excision using the blunt edge of the scalpel and collected using a micropipette.
For cytological analyses, blood cells collected from the zebrafish embryos were transferred onto glass slides by cytospin and stained by Protocol® Wright-Giemsa stain (Fisher Diagnostics) following manufacturer's instruction. To label red blood cells in the zebrafish embryos, whole-mount cytochemistry staining with […] was performed as previously described (Weinstein et al., Development 123:303-309, 1996).

For `CC1=C(/C=C/C(C)=C/C=C/C(C)=C/C(=O)O)C(C)(C)CCC1` [ATRA, all-trans retinoic acid], the “percentage of embryos possessing circulation” value ([1]; 10 pM added at 24 hpf, three 1-hour 37° C. heat treatments at 4, 16, 24 hpf, scored at 40 hpf, vehicle 20%, p=0.0085) was 36% and the “degree of rescue at higher concentrations” value ([1]; concentrations above 10 pM (range tested 1 pM to 1 nM)) was “did not increase”.

With “hAML1-MO: morpholino antisense oligonucleotide 5′-CTGGCATCTACGGGGATACGCATCA (SEQ ID NO:3), targets the translation start codon of human AML1 (all phosphorodiamidate morpholino (PMO); listed as Homo sapiens)” the “percentage of AML1-ETO-expressing embryos without circulating blood” value [1] was “less than 10%” and the “percentage of AML1-ETO-expressing embryos without circulating blood” value ([1]; listed as HAML1-MO) was 6.7%.

With “zTIS11b-MO: morpholino antisense oligonucleotide 5′-ACTTTTCTCCATACCTTGTTGTTGA (SEQ ID NO:4), targets the splice donor site of zebrafish TIS11b transcripts (all phosphorodiamidate morpholino (PMO))” the “blast cells in blood of injected Tg(hsp:AML1-ETO) embryos by cytological analysis” value [2] was “accumulation of hematopoietic blast cells; also recorded: abundant immature blast-like cells” and the “percentage of injected Tg(hsp:AML1-ETO) embryos exhibiting the AML1-ETO (lack of circulation) phenotype” value ([1]; 200 μM morpholino solution injected, mild heat treatment, uninjected less than 30%) was 98%.
